Assay results as given in PMC5107945, “Abscinazole-E3M, a practical inhibitor of abscisic acid 8′-hydroxylase for improving drought tolerance” (Scientific Reports, 2016).

How the values were obtained:
ABA catabolism = details: in vivo
Protocol: For ABA measurements from Arabidopsis seedlings, samples (1–20 mg dry weight) were ground with beads in 2-mL tubes and homogenised in 1 mL 80% (v/v) MeCN containing 1% AcOH (v/v) with d6-ABA. After extracting for 16 h at 4 °C, samples were centrifuged at 4 °C for 10 min at 3,000× g, and supernatants were collected. Samples were re-extracted twice with 1 mL 80% MeCN at 4 °C for 30 min, and the supernatants were collected after centrifugation. MeCN was removed with nitrogen gas, and the acidified water extracts were loaded into 1cc Oasis HLB cartridges. After washing with water containing 1% AcOH, plant ABA was eluted with 80% MeCN containing 1% AcOH. MeCN was removed, and samples were loaded into 1cc Bond Elute DEA cartridges (Agilent). After washing with MeOH, the ABA was eluted using MeOH containing 1% AcOH. The fractions containing ABA were dried, dissolved in water containing 1% AcOH, and analysed by LC–MS/MS as described previously[35]. The LC conditions for Arabidopsis samples were as follows: solvent A, water containing 0.01% (v/v) acetic acid; solvent B, MeCN containing 0.05% (v/v) acetic acid; and linear gradient, 3 to 40% solvent B over 9 min. Experiments were performed in triplicate, and the results were averaged.
25 µ M (−)-Abz-E3M (n = 3,error bar represents s.d.).Eleven-day-old seedlings of wild-type (Col accession) […]

[1] = target: T1, Arabidopsis recombinant CYP707A3 (ABA 8′-hydroxylase) (Arabidopsis thaliana, UniProt Q9FH76); experiment: CYP707A3 inhibition assay (decrease of enzymatic product PA); format: biochemical; details: Arabidopsis recombinant CYP707A3 expressed in E. coli
T1 construct: made in house; host or cells: Escherichia coli (microsomal/membrane fraction)
T1 sequence (Q9FH76 1-463): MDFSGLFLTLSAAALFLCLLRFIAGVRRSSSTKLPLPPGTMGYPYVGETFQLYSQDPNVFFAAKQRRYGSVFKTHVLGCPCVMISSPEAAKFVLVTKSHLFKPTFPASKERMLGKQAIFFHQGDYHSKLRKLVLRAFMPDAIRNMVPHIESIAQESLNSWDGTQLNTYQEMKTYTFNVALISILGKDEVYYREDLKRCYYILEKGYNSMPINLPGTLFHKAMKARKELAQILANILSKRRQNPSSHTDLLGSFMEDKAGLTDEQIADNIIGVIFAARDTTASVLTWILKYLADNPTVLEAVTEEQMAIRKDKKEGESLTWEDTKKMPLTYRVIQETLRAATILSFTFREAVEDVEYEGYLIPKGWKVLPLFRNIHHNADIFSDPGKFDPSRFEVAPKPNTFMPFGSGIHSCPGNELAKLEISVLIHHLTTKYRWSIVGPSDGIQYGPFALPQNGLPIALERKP
Protocol: The inhibitory activities of Abz-T compounds against ABA 8′-hydroxylase were examined using recombinant Arabidopsis CYP707A3 co-expressed with Arabidopsis P-450 reductase (ATR1) in Escherichia coli[22]. The activity levels were evaluated based on the decrease in the amount of the enzymatic product, PA.
Reactions were initiated by adding NADPH, stopped by the addition of 25 μL of 1 M NaOH and then acidified with 50 μL of 1 M HCl. Reaction products were extracted by loading the mixture onto an Oasis HLB cartridge (1 mL, 30 mg; Waters Corp., Milford, MA, USA) and were washed with 1 mL of 10% MeOH in H2O (v/v) containing 1% acetic acid (AcOH, v/v). The enzyme products were then eluted with 1 mL of MeOH containing 1% AcOH, and the eluate was concentrated in vacuo. Each dried sample was then dissolved in 50 μL of MeOH, and a 20-μL volume was subjected to HPLC (Prominence; Shimadzu Corp., Kyoto, Japan). HPLC conditions were as follows: the octadecylsilyl column was composed of Hydrosphere C18 (150 × 6.0 mm, YMC Co., Ltd., Kyoto, Japan), and the solvent comprised 17% acetonitrile (MeCN) in H2O containing 0.05% AcOH (v/v). The flow rate was 1.0 mL min^−1, and detection was at 254 nm. Enzyme activity was evaluated by determining the amount of PA in control experiments prior to taking each set of measurements. The inhibition constants were determined using the Enzyme Kinetics module of the SigmaPlot 10 software (Systat Software, Inc., San Jose, CA, USA) after determining the inhibition mode by plotting the reaction velocity in the presence and absence of the inhibitor on a double-reciprocal plot. The inhibition ratio was defined as [(A − B)/A] × 100, where A = the amount of PA when the inhibitor was absent from the reaction mixture (control), and B = the amount of PA when the inhibitor was present. All of the tests were conducted at least three times.

[2] = tested on: ABA-responsive genes MAPKKK18, RD29A and RD29B; experiment: qRT-PCR of ABA-responsive genes in Arabidopsis seedlings; format: in vivo, Arabidopsis (Columbia accession); details: 10-day-old seedlings, 6 h
Protocol: Figure 5 Effects of (−)-Abz-E3M on the expression levels of Arabidopsis ABA-responsive genes. Expression of MAPKKK18, RD29A and RD29B after treatment with (−)-Abz-E2B or (−)-Abz-E3M in the absence or presence of 0.25 μM ABA (n = 4, error bar represents s.d.).
Arabidopsis (Columbia accession) were grown for 10 d on agar plates containing 1/2 Murashige and Skoog (MS) and 0.5% sucrose at 22 °C under an 18/6-h light/dark cycle. Seedlings were incubated in the chemical solutions for 6 h. Total RNA from seedlings was isolated using the Plant RNA purification reagent (Thermo Fisher Scientific) according to the manufacturer’s instructions. cDNA was synthesised using the QuantiTec reverse transcription kit (Qiagen). Maize (cv. Gold rush, Sakata Seed Corporation) seedlings were grown in 100-mL pots containing 75 g of moist soil in a glass house. The root parts of the maize seedlings were washed with tap water and dipped in 100 μM (−)-Abz-E3M chemical solution containing 0.05% Tween-20 overnight. Total RNA from maize seedlings was isolated using an RNeasy mini kit (Qiagen) with the ‘on-column’ DNA digestion method. cDNA was synthesised using a High-Capacity cDNA Reverse Transcription Kit (Thermo Fisher Scientific). Real-time PCR using SYBR Premix Ex Taq™ II (Takara) was performed with Step One-Plus (Thermo Fisher Scientific). The primer sets are shown in Supplemental Table S1.

Substance: abscinazole-E3M [(−)-6]
- ABA catabolism / ABA accumulation in plants (ABA catabolism): inhibited ABA catabolism and increased ABA accumulation in plants
- IC50 ([1]; 5 μM ABA as substrate, read-out: CYP707A IC50): 0.064 µM
- Ki ([1]; ABA 1–64 μM, read-out: CYP707A KI): 0.035 µM
- Expression of ABA-responsive genes MAPKKK18, RD29A and RD29B ([2]; absence of exogenous ABA): did not induce the expression
- Expression of ABA-responsive genes MAPKKK18, RD29A and RD29B ([2]; co-treatment with 0.25 μM ABA): enhanced the expression levels of ABA-responsive genes
